Laboratory results reported in ChEMBL document CHEMBL5209588, “Membrane potential based assay for SLC6A9 using HEK-293 SLC6A9 OE cells” (2022).

Biological target: T1, Sodium- and chloride-dependent glycine transporter 1 (Homo sapiens, UniProt P48067)
T1 sequence (P48067 whole entry): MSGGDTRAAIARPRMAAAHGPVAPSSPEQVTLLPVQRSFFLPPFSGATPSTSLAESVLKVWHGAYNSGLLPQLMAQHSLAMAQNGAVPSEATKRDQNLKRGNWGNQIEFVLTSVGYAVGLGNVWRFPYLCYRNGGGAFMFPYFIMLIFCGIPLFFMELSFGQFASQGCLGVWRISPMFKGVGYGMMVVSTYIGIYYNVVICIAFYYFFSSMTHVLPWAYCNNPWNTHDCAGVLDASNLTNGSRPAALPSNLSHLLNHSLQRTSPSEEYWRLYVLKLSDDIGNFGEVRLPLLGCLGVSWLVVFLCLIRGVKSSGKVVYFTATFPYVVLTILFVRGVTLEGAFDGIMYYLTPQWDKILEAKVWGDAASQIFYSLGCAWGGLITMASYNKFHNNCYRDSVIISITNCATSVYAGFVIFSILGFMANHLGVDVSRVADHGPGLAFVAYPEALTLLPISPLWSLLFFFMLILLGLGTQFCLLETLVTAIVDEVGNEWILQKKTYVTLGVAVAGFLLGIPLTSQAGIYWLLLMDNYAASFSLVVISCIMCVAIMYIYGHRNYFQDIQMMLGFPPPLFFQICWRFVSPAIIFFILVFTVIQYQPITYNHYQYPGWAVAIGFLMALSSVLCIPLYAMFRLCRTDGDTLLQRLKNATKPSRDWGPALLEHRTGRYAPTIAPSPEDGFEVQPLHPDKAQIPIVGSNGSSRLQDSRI
Description: Substrate uptake and inhibition of the Glycine Transporter-1 (GlyT1, SLC6A9) as assessed by the fluorescent FLIPR membrane potential dye in HEK-293 JumpIN-SLC6A9 cells (PubChem AID: 1794809)

EC50: 106 µM
Compound: NCC(=O)O [GLYCINE]
